Patent US8785416B2, “Sulphated disaccharides for the treatment of neurodegenerative and/or neurovascular diseases” (Bioiberica, S.A., priority 2009, dated 2014)

Tests used:
TNFα = TNFα production in LPS-activated cerebral cortex astrocytes (RT-PCR); format: cell-based, rat; conditions: 0.03 μM, simultaneous with 10 μg/mL LPS for 2 hours
Protocol: Newborn male rats aged 2-3 days were used. After a craniotomy, both cortices were extracted and deposited in a Petri dish with cold PBS. Under a microscope magnifying lens, the meninges of each cortex were extracted. Once clean, they were submersed in cold DMEM and a mechanical dissection was performed with a pipette. Then, the sample was centrifuged at 1,000 rpm for 5 minutes and the supernatant was decanted. The precipitate was resuspended in DMEM with 20% FBS and a mixture of antibiotics (penicillin/streptomycin). Finally, it was passed through a 70 μm filter and seeded in a 75 cm^2 flask with an aerated filter stopper. The calculation for the seeding of the cells was one flask (15 mL of medium) for every newborn used. […]
Subsequently, the medium of each flask was collected and taken to 50 mL Falcon tubes, they were centrifuged for 5 minutes at 1,000 rpm and the supernatant was decanted. The precipitate was resuspended in DMEM with 10% FBS and antibiotics and the cells were counted for their subsequent seeding.
The induction of inflammation in the astrocytes was performed by means of adding 10 μg/mL lipopolysaccharide together with the compounds to be studied (compound Ic at 0.03 μM and chondroitin sulphate at 10 μM) for 2 hours. […] The quantification was performed by the direct measurement of absorbance at 260/280 nm in a Nanodrop® spectrophotometer. […]

[1] = tested on: mice (photothrombotic stroke model); assay: Experimental photothrombotic stroke model, cortical infarction volume; format: in vivo, mouse; conditions: 10 mg/kg i.p.
From the text: Neuronal death occurs during brain ischemia or stroke; therefore a medicament with a neuroprotective profile can have a therapeutic potential in patients who have suffered from a cerebral infarction or stroke. To explore if the compounds of formula (I) can offer neuroprotection in vivo, the experimental photothrombotic stroke model was used. In the photothrombosis model a focal cerebral infarction is induced in the area of the cortex illuminated by means of a cold light source in mice previously treated with the Rose Bengal stain; this stain is photosensitive and produces free radicals when it is stimulated with light, causing lesions in the surrounding vascular endothelium, which causes platelet aggregation and the formation of thrombi in the microvessels of the cerebral cortex (Non-invasive induction of focal cerebral ischemia in mice by photothrombosis of cortical microvessels: characterization of inflammatory responses, M. Schroeter et al., J Neurosci Methods. 117(1), 43-49. (2002); Melatonin reduces infarction volume in a photothrombotic stroke model in the wild-type but not cyclooxygenase-1-gene knockout mice, L Y. Zhou et al., J Pineal Res. 41(2), 150-156. (2006)).
Adult male Swiss breed mice from Harlan laboratories (Barcelona), with a weight of about 30 g, were used. Once anaesthetised with isoflurane, the mice were placed in a stereotaxic frame, maintaining their rectal temperature at 37±0.5° C. during the entire procedure. Subsequently, the cranium was exposed by means of a dorsomedial incision in the skin and the periosteum was removed. By means of the use of a micromanipulator, a fibre-optic cable was placed to emit a beam of light of 1.9 mm in diameter and 3000° K, connected to a cold light source (Zeiss KL 1500), in 2.0 mm posterior and 3.0 mm lateral to Bregma on the right side. According to the mouse brain atlas (Franklin and Paxinos, 1986), the sensitive-motor cortex, the putamen caudate and the hippocampus are right below this stereotaxic position. Then, the mice were injected with 1 mg of the Rose Bengal photosensitive probe and the brain was illuminated through the intact cranium for 30 minutes. Finally, the skin was sutured and the animals were left in a cage until their recovery under observation.
The animals were sacrificed by decapitation 72 hours after the ischemia. […]
To quantify the cortical cerebral infarction volume, the sections stained with TTC were scanned on both their rostral and caudal part and by means of the image analysis programme ImageJ 1.41 (National Institutes of Health, Bethesda, Md., USA) the area of the ipsi-, contralateral cortex and the cerebral infarction of each of the sections scanned, both in the caudal and rostral part, was quantified. Subsequently, the cerebral infarction volume was calculated. […]

methyl 2-acetamido-2-deoxy-3-O-(β-D-glucopyranosyluronic acid)-4,6-di-O-sulpho-α-D-glucopyranoside, trisodium salt [compound Ic]
reduction of the production of TNFα (TNFα): 75%
cortical infarction volume ([1]; 24 h and 1 h before ischemia and twice a day after, 72 hours, saline 6.1±2.18%, mean and standard deviation): 2.8±1.95%
protection (reduction of cortical infarction volume) ([1]; p<0.001 vs saline): 53%
